Assay results: patent US20230263800A1, “COMPOSITIONS AND METHODS TO PROMOTE THYMIC FUNCTION” (Fred Hutchinson Cancer Center, priority 2020, published 2023)
“Also recorded” adds a separate entry of the source. Read-outs that look alike come from different tables or passages of the source.

Assays:
Foxn1 in C9 (cTEC) cells = assay: Foxn1 expression by qPCR in C9 cells; assay type: cell-based, mouse
Experimental: (§1) FIGS. 7A, 7B. […] Graphs represent mean±SEM, each dot represents a biologically independent observation (n=3 independent experiments). *, p<0.05; **, p<0.01; ***p<0.001.
(§2) FIGS. 18A-18G. Thymuses were harvested at d0, d1, d2, and d3 after TBI (550 cGy) and (18A) mitochondrial membrane potential, (18B) Reactive oxygen species (ROS) levels, and (18C) glutathione levels were measured in DP thymocytes and cTECs (n=4-7 mice from 1-2 experiments). (18D) Foxn1 expression in FACs-purified cTECs at d0, d4, and d7 after TBI; (18E) Intracellular Ca2+ levels were measured on whole thymus harvested at d0, d2, d4, and d7 post SL-TBI. (18F, 18G) Foxn1 expression levels were measured by qPCR in (18F) C9, and (18G) TE71 cells after treatment with Tunicamycin (5 ug/ml) or Thapsigargan (1 μg/ml). Graphs represent mean+/−SD.
FIGS. 19A, 19B. (19A) C9s were treated with (19A) ATP and P2X7 antagonist or (19B) P2Y2 agonist or antagonist and FOXN1 expression was assessed by qPCR after 20 h. Graphs represent mean+/−SEM.
(§3) Cell cultures. exEC were generated as previously described (Seandel et al., Proc Natl Acad Sci USA. 2008, 105(49):19288-19293). Cells were cultured in presence of ultrapure Zn sulfate monohydrate purchased from Alfa Aesar (Haverhill, Mass. #1113809) or sodium pyrythione (Sigma Aldrich, St. Louis, Mo. #H3261-1G). TC-G 1008 was used in cell cultures at a final concentration of 25 μM. Silencing of the zinc receptor Gpr39 was performed by electroporation using Nucleofector electroporation kit (VPI-1001, Lonza; Program M-003, Nucleofector 2b, Lonza), and the GPR39 siRNA Silencer Select (Thermo, Waltham, Mass.). Mouse C9 (cTEC) and TE-71 (mTEC) cells were kindly provided by A. Farr, University of Washington.
PCR and Microarray. Reverse transcription-PCR was performed with iScript Clear gDNA cDNA synthesis kit (Bio Rad, Hercules, Calif.) on CFX96 (Bio Rad, Hercules, Calif.) with iTaq Universal SYBR Green (Bio Rad). Relative amounts of mRNA were calculated by the comparative AC(t) method or as relative expression. SYBR Green gene expression assays for qPCR, including Bmp4 (Mm00432087_m1), Foxn1 (Mm00433948_m1), beta-actin, Gpr39, Top1 were all purchased from Life Technologies (Carlsbad, Calif.) and Bio Rad (Hercules, Calif.). b-actin: synthesized by IDT, F: 5′-[…]-3′ (SEQ ID NO: 6), R: 5′-[…]-3′ (SEQ ID NO: 7). Top1: synthesized by IDT, sequences provided by PrimerBank, PrimerBank ID 6678399a1. Bmp4: Biorad qMmuCED0046239. Foxn1: Biorad qMmuCED0044924. Microarray data from CD45^− cells was analyzed on day 0, 4 and 7 as previously described (Wertheimer et al., Science Immunology. 2018, 3(19)) (GSE106982) and differential gene expression of Gpr39 was calculated.

[1] = system: C57BL/6 mice given sublethal TBI; assay: Thymic regeneration after sublethal total body irradiation (SL-TBI, 550 cGy); assay type: in vivo, mouse; conditions: for thymic regeneration (thymus cellularity): day 14
Excerpt: FIGS. 4A-4G. […] (4A, 4B) 6-8 week-old female C57BL/6 mice were fed a normal or ZD diet for 21 days at which point mice were given a sublethal dose of total body irradiation (TBI, 550 cGy). (4A) Total thymic cellularity at days 7 and 14 after TBI (n=10/treatment/timepoint across two independent experiments). (4B) Total number of CD45-EpCAM^+MHCII^+UEA1^loLy51^hi (cTECs) and CD45^− EpCAM^+MHCII^+UEA1^hi Ly51^lo (mTECs) at days 7 and 14 after TBI (n=10/treatment/timepoint across two independent experiments). (4C) 6-12 week-old female BALB.B mice were fed with normal or ZD diet for 21 days, at which point mice were given a lethal dose of TBI (900cGy) and 10×10^6 T cell-depleted bone marrow (BM) cells from 6-8 week-old C57BL/6. One cohort also received 2×10^6 T cells to induce graft versus host disease (GVHD); thymic cellularity was quantified on day 14 after allogeneic hematopoietic stem cell transplant (allo-HCT, n=5-6/group). (4D) 6-8 week-old female C57BL/6 mice were fed with normal or ZD diet for 21 days at which point mice were given 550 cGy TBI and total thymus cellularity quantified on day 14. […] (4E) Total thymic cellularity. (4F) Total number of cTECs and mTECs. (4G) Total number of Ki-67+ thymic endothelial cells (TECs). […]

Bmp4 in exECs [2] = assay: BMP4 protein by ELISA in exECs; assay type: cell-based, mouse
Experimental: FIGS. 10A-10F. G-protein coupled receptor 39 (GPR39) expressed by thymic endothelial cells is the central mediator of Zn-centered regeneration. […] Bmp4 expression was measured by qPCR (n=6 combined from two independent experiments). (10B) GPR39 expression across subsets in the thymus by flow cytometry at baseline. […] (10C) Expression of GPR39 on cTECs, mTECs, ECs and fibroblasts at days 0, 4, and 7 after TBI. […] BM P4 was measured by ELISA.

[3] = system: mice given TCD allo-HCT from RAG2-GFP donors; conditions: ZnSO4 in drinking water, peripheral blood and spleen after HCT, day 53
Experimental: FIGS. 12A-12D. […] (12A). […] (12B) Splenic T cells were analyzed for GFP expression on day 53 (n=4-5/group).

[4] = system: lineage-negative bone marrow (BM) co-cultured with OP9-DL1 cells; conditions: ZnSO4 10 μM added from day 0, read at day 30, versus control
Excerpt: Concatenated flow cytometry plots displaying CD4 and CD8 expression at day 30 (n=5 independent experiments).
To confirm the importance of Zn on T cell maturation, lineage-negative bone marrow (BM) isolated from C57BL/6 mice were co-cultured on the OP9-DLL1 system, which is able to support T cell development in vitro (Schmitt et al., Nat Immunol. 2004, 5(4):410-417; and Holmes et al., Cold Spring Harb Protoc. 2009, 2009(2):pdb prot5156).
OP9-DL1 cells were kindly provided by J. C. Zuniga-Pflucker, University of Toronto and cultured as previously described (Holmes et al., Cold Spring Harb Protoc. 2009, 2009(2):pdb prot5156) using lineage-negative BM (using a lineage depletion kit, Miltenyi Biotech, Germany). Flt-3L and IL-7 were purchased from Peprotech (Rocky Hill, N.J.).

Bmp4 in exECs [5] = assay: Bmp4 expression by qPCR in exECs; assay type: cell-based, mouse; conditions: ZnSO4 50 and 100 μM, 24 hours
C9 (cTEC) cells = conditions: graded doses of ZnSO4, 24 h
Experimental: as §1, §3
(§4) ELISA and Western Blot. Cell culture or tissue lysates were prepared in RIPA buffer (Thermo, Waltham, Mass.) as previously described (Wertheimer et al., Science Immunology. 2018, 3(19)) and normalized by BCA assay (Thermo, Waltham, Mass.). BMP4 levels were quantified by ELISA (LSBio, Seattle, Wash.) and read on a Spark 10M plate reader (Tecan, Switzerland). Cortisol levels were measured with ELISA on peripheral blood (R&D systems, Minneapolis, Minn.).

TE-71 (mTEC) cells = conditions: TE-71 cells, graded doses of ZnSO4, 24 h
Experimental: as §1, §3, §4

BMP4 = system: BMP4
Excerpt: (§5) FIGS. 8A-8F. […] (8A) 6-8 week-old female C57BL/6 mice were fed a normal or ZD diet for 21 days at which point mice were given 550 cGy TBI. […] Levels of BMP4 were quantified by enzyme-linked immunoassay (ELISA) at day 10 after TBI (n=5-10/group from one independent experiment). […] Mice were maintained on Zn-supplemented drinking water for the duration of the study. (8B) BMP4 levels measured by ELISA at day 10 (n=9/group combined from three independent experiments). (8C) Endothelial cells (ECs) were fluorescence-activated cell sorting (FACS) purified at day 7 and Bmp4 expression was measured by qPCR (n=6/group combined from two independent experiments). […] Total thymus cellularity was quantified at day 10 after TBI (n=5/group from one independent experiment).
as §4

ERK1/2 = conditions: exECs stimulated with Zn
Excerpt: Flow cytometry, multidimensional analyses, and FACS sorting. For flow cytometry and cell sorting, surface antibodies against CD45 (30-F11), CD31 (390 or MEC13.3), CD90.2 (30-H12), TER-119 (TER-119), CD4 (RM4-5 or GK1.5), CD8 (53-6.7), TCRβ (H57-597), CD3 (145-2C11), CD44 (IM7), CD25 (PC 61.5), CD62L (MEL14), MHC-II IA/IE (M5/114.15.2), EpCAM (G8.8), Ly51 (6C3), CD11c (HL3), IL-7Ra (A7R34), CCR6 (140706), CD45.1 (A20), CD45.2 (104), ki-67 (16A8), and PDGFRa (APAS) were purchased from BD Biosciences (Franklin Lakes, N.J.), BioLegend (San Diego, Calif.) or eBioscience (San Diego, Calif.). Ulex europaeus agglutinin 1 (UEA-1), conjugated to FITC or Biotin, was purchased from Vector Laboratories (Burlingame, Calif.). GPR39 conjugated to FITC was purchased from Signalway Antibody (College Park, Md.). Red blood cell lysis was performed with ACK buffer (Thermo Scientific, Waltham, Mass.). Flow cytometry was performed on a Fortessa X50 (BD Biosciences, Franklin Lakes, N.J.) and cells were sorted on an Aria II (BD Biosciences) using FACSDiva (BD Biosciences, Franklin Lakes, N.J.). For intracellular cytokine or phosphoprotein analysis, cells were fixed and permeabilized using Fix Buffer I and Phospho-Perm Buffer III from BD Bioscience (Franklin Lakes, N.J.). Fluozin-3 AM was purchased from Thermo Fisher (Waltham, Mass.). Analysis was performed by FlowJo (Treestar Software, Ashland, Oreg.).

[6] = system: Foxn1 in TE-71 (mTEC) cells; assay: Foxn1 expression by qPCR in TE-71 cells; assay type: cell-based, mouse
Experimental: as §2
PCR and Microarray. […] Bmp4: Biorad qMmuCED0046239. Foxn1: Biorad qMmuCED0044924.

[7] = system: Bmp4 in endothelial cells (ECs); conditions: 300 mg/kg/day ZnSO4 21 days before TBI, ECs sorted at day 7
Excerpt: as §5
PCR and Microarray. Reverse transcription-PCR was performed with iScript Clear gDNA cDNA synthesis kit (Bio Rad, Hercules, Calif.) on CFX96 (Bio Rad, Hercules, Calif.) with iTaq Universal SYBR Green (Bio Rad). Relative amounts of mRNA were calculated by the comparative AC(t) method or as relative expression. […] Microarray data from CD45^− cells was analyzed on day 0, 4 and 7 as previously described (Wertheimer et al., Science Immunology. 2018, 3(19)) (GSE106982) and differential gene expression of Gpr39 was calculated.

[8] = 300 mg/kg/day ZnSO4 in drinking water for 21 days, Fluozin-3 and ICP-MS
Experimental: FIGS. 9A-9G. […] (9A, 9B) 6-8 week-old female C57BL/6 mice were given 550 cGy TBI and levels of Zn were measured by inductively coupled plasma mass spectrometry (ICP-MS). (9A) Total thymic amounts of Zn from both intracellular and extracellular fractions of thymus (n=6/timepoint). (9B) Extracellular Zn was measured only in thymic supernatants and the ratio of extracellular to total thymic Zn was calculated (n=6/timepoint). […] Thymocytes were isolated either before or 48 hours after TBI and co-cultured with exECs. Bmp4 expression was measured by qPCR at 24 hours (n=3-4/group). […] Thymus cellularity was measured at day 28 after TBI (n=4-5/group). (9E) 6-8 week-old female C57BL16 mice were fed a normal or ZD diet for 21 days after which thymocytes were isolated by CD90+ magnetic separation. Intracellular Zn levels were measured by staining with Fluozin-3 and assessed by flow cytometry (n=5/group across two independent experiments).

**Q.** For `Cc1ccc2c(c1)C=Cc1cc(C)ccc1C2c1cn(Cc2ccc(C(=O)Nc3nn[nH]n3)o2)c(=O)[nH]c1=S` [AR-C 1182925XX], which “effect on P2Y2 agonist-induced Foxn1 expression” value (Foxn1 in C9 (cTEC) cells; C9 cells, P2Y2 antagonist, 20 h) is on record?
**A.** reversed

**Q.** With `Nc1ncnc2c1ncn2[C@@H]1O[C@H](COP(=O)(O)OP(=O)(O)OP(=O)(O)O)[C@@H](O)[C@H]1O` [ATP] as the compound, how does the “thymic regeneration (thymus cellularity)” value ([1]; ATP by intraperitoneal injection at d3 after SL-TBI (legend: 5 mg/kg bzATP)) read?
**A.** superior thymic regeneration; also recorded: enhancing thymus cellularity

**Q.** And the Foxn1 expression (Foxn1 in C9 (cTEC) cells; C9 cells, ATP, 20 h)?
**A.** potent inducer of FOXN1

**Q.** With `Nc1[nH]nc2nnc(-c3c(-c4ccccc4)nn4ccccc34)cc12` [FR180204] as the compound, how does the BMP4 production (Bmp4 in exECs [2]; ERK inhibitor FR180204 prior to ZnSO4 (100 μM), 24 hours) read?
**A.** BMP4 production was abrogated

**Q.** Which results are given for `O=c1ccn([C@@H]2O[C@H](COP(=O)([O-])OP(=O)([O-])OP(=O)([O-])OP(=O)([O-])Oc3ccccc3)[C@@H](O)[C@H]2O)c(=O)[nH]1.[Na+].[Na+].[Na+].[Na+]` [MRS 2768, tetrasodium; [[(2R,3S,4R,5R)-5-(2,4-dioxopyrimidin-1-yl)-3,4-dihydroxyoxolan-2-yl]methoxy-oxidophosphoryl] [oxido-[oxido(phenoxy)phosphoryl]oxyphosphoryl] phosphate]?
**A.** thymic regeneration (thymus cellularity) ([1]; MRS 2768 5 mg/kg IP at day 3 after 550 cGy TBI, 5 mg/kg): superior thymic regeneration; also recorded: enhancing thymus cellularity; cTEC numbers ([1]; MRS 2768 5 mg/kg, d13 following TBI, 5 mg/kg): increased cTEC numbers; also recorded: expanding cTECs; Foxn1 expression (Foxn1 in C9 (cTEC) cells): increase in Foxn1 expression

**Q.** Which “GFP+ CD4+ and CD8+ lymphocytes (recent thymic emigrants)” value [3] does the source give for `O=S(=O)([O-])[O-].[Zn+2]` [ZnSO4, zinc sulphate] here?
**A.** higher levels of GFP+CD4+ and CD8+ lymphocytes

**Q.** And the “production of DP (CD4+CD8+) cells” value [4]?
**A.** more robust production of DP

**Q.** And the “transcription of Bmp4” value (Bmp4 in exECs [5])?
**A.** dose-dependent increase

**Q.** What about the TEC proliferation (C9 (cTEC) cells) of the same compound?
**A.** did not show any direct effect

**Q.** What about the TEC proliferation (TE-71 (mTEC) cells) of the same compound?
**A.** did not show any direct effect

**Q.** What about the BMP4 protein (Bmp4 in exECs [2]; ZnSO4, 48 hours) of the same compound?
**A.** confirmed at the protein level

**Q.** What about the “BMP4 levels in the thymus” value (BMP4; 300 mg/kg/day ZnSO4 21 days before TBI without prior ZD, day 10) of the same compound?
**A.** increased levels of BMP4

**Q.** And the “BMP4 levels in the thymus” value (BMP4; ZD diet 21 days, 550 cGy TBI, 300 mg/kg/day ZnSO4 in drinking water from day 0, day 10)?
**A.** restored BMP4 levels

**Q.** And the “phosphorylation of ERK1/2” value (ERK1/2)?
**A.** led to phosphorylation of ERK1/2

**Q.** And the Foxn1 expression ([6]; TE-71 cells, 100 μM ZnSO4, 24 h)?
**A.** did not show any direct effect

**Q.** What about the “Bmp4 expression in purified ECs” value [7] of the same compound?
**A.** increased expression of Bmp4

**Q.** What about the “intracellular Zn in thymocytes” value [8] of the same compound?
**A.** significantly increased levels of intracellular Zn

**Q.** What about the Foxn1 expression (Foxn1 in C9 (cTEC) cells; C9 cells, 100 μM ZnSO4, 24 h) of the same compound?
**A.** did not show any direct effect

**Q.** Which “effect on tunicamycin-induced Foxn1 expression” value ([6]; TE71 cells, Thapsigargan 1 μg/ml) does the source give for `C/C=C(/C)C(=O)O[C@H]1C(C)=C2[C@H]([C@@H]1OC(=O)CCCCCCC)[C@@](C)(OC(C)=O)C[C@H](OC(=O)CCC)[C@@]1(O)[C@H]2OC(=O)[C@@]1(C)O` [thapsigargan] here?
**A.** reversed

**Q.** What about the “effect on tunicamycin-induced Foxn1 expression” value (Foxn1 in C9 (cTEC) cells; C9 cells, Thapsigargan 1 μg/ml) of the same compound?
**A.** reversed

**Q.** What does the source list for tunicamycin?
**A.** Foxn1 expression ([6]; TE71 cells, Tunicamycin 5 ug/ml): induced Foxn1 expression; Foxn1 expression (Foxn1 in C9 (cTEC) cells; C9 cells, Tunicamycin 5 ug/ml): induced Foxn1 expression
